The record followed here is PubChem BioAssay AID863 (NMMLSC, 2007).

Activity calls are given as the source filed them. No rule for the calls is given here.

The target of the experiment is fMet-Leu-Phe receptor (Homo sapiens) (UniProt P21462). The experiment can be described thus: formyl peptide receptor 1 antagonism, calcium readout – U937 cells, fMLFF stimulus, Fluo4, flow cytometry, SAR follow-up (AID 863). Conditions: FPR-expressing U937 cells, fMLFF-induced Fluo4 calcium flux, 80 s, stronger effect = higher value, concentration not given here. In general terms: In flow cytometry, cells or beads pass a laser one at a time.
fMet-Leu-Phe receptor (Homo sapiens), sequence (P21462 whole entry, looked up): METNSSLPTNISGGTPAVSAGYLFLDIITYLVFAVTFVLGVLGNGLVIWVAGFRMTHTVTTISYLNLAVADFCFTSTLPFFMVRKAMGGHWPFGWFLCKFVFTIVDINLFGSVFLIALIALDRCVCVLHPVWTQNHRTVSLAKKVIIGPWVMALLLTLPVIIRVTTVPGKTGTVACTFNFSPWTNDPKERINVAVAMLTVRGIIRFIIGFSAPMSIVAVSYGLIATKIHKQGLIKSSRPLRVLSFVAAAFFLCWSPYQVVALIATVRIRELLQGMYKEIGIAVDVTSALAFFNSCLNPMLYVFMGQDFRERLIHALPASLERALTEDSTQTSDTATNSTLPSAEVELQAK
Turning to `Cc1nc2c(-c3ccc(Cl)cc3)c(C(F)(F)F)[nH]n2c(=O)c1Cc1ccccc1`, the inhibition was 98.1%.

On to `O=C(C1=C(O)C(=O)N(CCc2ccccc2)C1c1ccc(Cl)cc1)c1cccs1` (centres undefined), for which the inhibition is 81.3% (inactive). For `COc1ccccc1-c1c(C(F)(F)F)oc2cc(OC(=O)c3ccco3)ccc2c1=O` the value was 98.8%.

As to `COc1ccc(C2C(C(=O)c3cccs3)=C(O)C(=O)N2CCN2CCOCC2)c(OC)c1` (centres undefined), the inhibition is 72.3% (inactive). Turning to `O=C(Oc1ccc2c(=O)c(-c3ccccc3Cl)c(C(F)(F)F)oc2c1)c1cccs1`, the inhibition was 185%. Regarding `CCc1cc2c(=O)c(-c3nc4ccccc4n3C)c(C)oc2cc1OC(C)=O`, the inhibition was 101%. Consider `COCCN1C(=O)C(=O)/C(=C(/O)c2ccccc2)C1c1cc(OC)ccc1OC` (centres undefined), for which the inhibition was 97.5%. Take `CCCCCCN1C(=O)C(=O)/C(=C(\O)c2ccccc2)C1c1ccc(O)c(OC)c1` (centres undefined): the inhibition was 44% (inactive). Turning to `COc1ccc(OC)c(C2/C(=C(\O)c3ccccc3)C(=O)C(=O)N2c2cccnc2)c1` (centres undefined), the inhibition was 40.7% (inactive). The value for `COc1ccc(-c2c(C(F)(F)F)oc3cc(OC(=O)c4cccnc4)ccc3c2=O)cc1OC` was 85.6% (inactive); that for `COc1ccc(C2/C(=C(\O)c3ccccc3)C(=O)C(=O)N2CCCn2ccnc2)c(OC)c1` (centres undefined) was 99.5%; that for `COc1ccc(C2C(C(=O)c3ccco3)=C(O)C(=O)N2CCN2CCOCC2)c(OC)c1` (centres undefined) was 58.1% (inactive). Take `COc1ccc(C2C(C(=O)c3cccs3)=C(O)C(=O)N2CCCn2ccnc2)cc1` (centres undefined): the inhibition was 96.9%. In the case of `COc1ccc(-c2c(C(F)(F)F)oc3cc(OC(=O)c4ccco4)ccc3c2=O)cc1OC`, the inhibition is 93%.

The inhibition is the change of the read-out against control, counted positive when it falls.
